Experiments:
[1] = tested on: P. falciparum female gametocytes; assay: P. falciparum female gametogenesis assay (Pf FGAA); details: 1: YES; 0: NO; >10-fold selectivity over cytotox
[2] = tested on: P. falciparum female gametocytes; design: method as in Miguel-Blanco et al 2017; details: ref Miguel-Blanco et al 2017; read-out: Pf FGAA IC50; cited from earlier work
[3] = tested on: HepG2 cells; assay: HepG2 cytotoxicity assay; details: unified HepG2 cytotoxicity across the three screens
Summary of the method: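 Here viability after a 48 h compound incubation (37°C, humidified 5% CO2) is measured by fluorescence and expressed as percent inhibition, with doxorubicin at 50 μM and DMSO as the bounding controls.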

Row | Compound | Is compound selective in assay? Pf FGAA active? [1] | IC50 [2] | Unified cytotox [3]
1 | CC(C)Cn1cc(C2CCN(CCN3CCC(CNC(=O)c4ccc(-c5ccc(C#N)cc5)cc4)CC3)CC2)c2ccccc21 [TCMDC-138849] | 0 (0: NO) | 1.03 µM | 4.79 µM
2 | CC(C)Cn1cc(C2CCN(CCN3CCC(CNC(=O)c4ccc(-c5ccc(C(F)(F)F)cc5)cc4)CC3)CC2)c2ccccc21 [TCMDC-138852] | 0 (0: NO) | 0.88 µM | 4.80 µM
3 | O=C(NCC1CCN(CCN2CCC(c3cn(CCO)c4ccccc34)CC2)CC1)c1ccc(-c2ccc(C(F)(F)F)cc2)cc1 [TCMDC-138856] | 0 (0: NO) | 1.47 µM | 2.69 µM
4 | O=C(O)C(F)(F)F.O=S(=O)(c1ccccc1)n1ccc2cc(Nc3ncnc4cc(C#C[C@H]5CCCN5)sc34)ccc21 [TCMDC-138913] | 0 (0: NO) | 1.17 µM | 5.50 µM
5 | COc1cc2nc(-c3ccc(Br)cc3)cc(N)c2cc1OC [TCMDC-138933] | 0 (0: NO) | 0.76 µM | 4.95 µM
6 | CCN1CCC2(c3cccc(OC)c3)Cc3nc4ccccc4c(-c4ccccc4)c3CC2C1 (stereo not drawn) [TCMDC-138968] | 1 (1: YES) | 1.43 µM | 33.25 µM
7 | COc1ccc(NC(=O)c2ccc(OCCCCCCCOc3ccc(C(=O)Nc4ccc(OC)c(N5CCN(C)CC5)c4)cc3)cc2)cc1N1CCN(C)CC1.O=C(O)C(=O)O [TCMDC-139007] | 0 (0: NO) | 1.41 µM | 4.43 µM
8 | COc1ccc(NC(=O)c2cccc(Br)c2)cc1N1CCN(CCCCCCCN2CCN(c3cc(NC(=O)c4cccc(Br)c4)ccc3OC)CC2)CC1.Cl [TCMDC-139020] | 0 (0: NO) | 1.06 µM | 6.03 µM
9 | Oc1ccc2[nH]cc(C3CCN(CCCNCc4ccc(-c5ccccc5)cc4)CC3)c2c1 [TCMDC-139047] | 0 (0: NO) | 1.44 µM | 5.62 µM
10 | Cl.Nc1c2c(nc3ccc(NC(=O)CCCCCCc4ccccc4)cc13)CCCC2 [TCMDC-139056] | 0 (0: NO) | 2.38 µM | 5.42 µM
11 | COC(=O)c1ccc(-c2ccc(-c3cccnc3)cc2C)cc1 [TCMDC-139074] | 0 (0: NO) | 0.59 µM | 3.63 µM
12 | c1ccc(C23N=C(Nc4nc5ccccc5[nH]4)NC2(c2ccccc2)NC(Nc2nc4ccccc4[nH]2)=N3)cc1 (stereo not drawn) [TCMDC-139082] | 1 (1: YES) | 0.14 µM | 58.90 µM
13 | COc1cccc(C23N=C(Nc4nc5ccccc5[nH]4)NC2(c2cccc(OC)c2)NC(Nc2nc4ccccc4[nH]2)=N3)c1 (stereo not drawn) [TCMDC-139087] | 1 (1: YES) | 0.09 µM | 40.74 µM
14 | Clc1cccc(C23N=C(Nc4nc5ccccc5[nH]4)NC2(c2ccccc2)NC(Nc2nc4ccccc4[nH]2)=N3)c1 (stereo not drawn) [TCMDC-139089] | 1 (1: YES) | 0.15 µM | 42.76 µM
15 | c1ccc(-c2nc(Nc3nc4ccccc4[nH]3)[nH]c2-c2ccccc2)cc1 [TCMDC-139099] | 1 (1: YES) | 0.58 µM | 10.98 µM
16 | Cc1cc2nc(N=C3NC4(c5ccccn5)NC(=Nc5nc6cc(C)c(C)cc6[nH]5)NC4(c4ccccn4)N3)[nH]c2cc1C.O=C(O)C(F)(F)F (stereo not drawn) [TCMDC-139105] | 0 (0: NO) | 5.34 µM | 35.91 µM

Row | Compound | Is compound selective in assay? Pf FGAA active? [1] | IC50 [2] | Unified cytotox [3]
17 | CN1CCN(c2cc3c(cc2Cl)CCN3C(=O)Nc2ccc(NC(=O)c3ccc(C(F)(F)F)cc3)cc2)CC1.Cl [TCMDC-139270] | 0 (0: NO) | 0.69 µM | 3.99 µM
18 | CC(NCCc1cccc(Cl)c1)C(O)c1ccc(OCCCCCCOc2ccc(C(O)C(C)NCCc3cccc(Cl)c3)cc2)cc1 (stereo not drawn) [TCMDC-139334] | 0 (0: NO) | 1 µM | 2.63 µM
19 | Cc1cc(N)c2cc(NC(=O)/C=C/c3ccc([N+](=O)[O-])cc3)ccc2n1 [TCMDC-139335] | 0 (0: NO) | 2.69 µM | 5.37 µM
20 | Cc1cc(N)c2cc(NC(=O)c3cc(C(F)(F)F)cc(C(F)(F)F)c3)ccc2n1.Cl [TCMDC-139377] | 0 (0: NO) | 0.86 µM | 2.60 µM
21 | O=C(Nc1cc(Cl)c(Cl)cc1NC(=O)c1cccc(-c2ccccc2)c1O)c1cccc(-c2ccccc2)c1O [TCMDC-139548] | 0 (0: NO) | 1.09 µM | 3.09 µM
22 | COc1ccc2nc(N=C3NC4(c5ccccc5)NC(=Nc5nc6ccc(OC)cc6[nH]5)NC4(c4ccccc4)N3)[nH]c2c1.O=C(O)C(F)(F)F (stereo not drawn) [TCMDC-139632] | 1 (1: YES) | 0.12 µM | 62.72 µM
23 | CC(Cc1ccc(NS(=O)(=O)c2ccc(CC(C)NCCc3cccc(Cl)c3)cc2)cc1)NCCc1cccc(Cl)c1 (stereo not drawn) [TCMDC-139797] | 0 (0: NO) | 1.84 µM | 4.37 µM
24 | CC(Cc1ccc(NC(=O)c2ccc(CC(C)NCc3ccc(Cl)cc3)cc2)cc1)NCCc1cccc(Cl)c1 (stereo not drawn) [TCMDC-139810] | 0 (0: NO) | 0.86 µM | 4.03 µM
25 | CC(Cc1ccc(NC(=O)c2ccc(CNCCCCc3ccccc3)cc2)cc1)NCCc1cccc(Cl)c1.Cl (stereo not drawn) [TCMDC-139866] | 0 (0: NO) | 1.12 µM | 1.97 µM
26 | CC(Cc1ccc(NC(=O)c2ccc(CNCCc3ccccc3)cc2)cc1)NCCc1cccc(Cl)c1.Cl (stereo not drawn) [TCMDC-139867] | 0 (0: NO) | 2.07 µM | 4.17 µM
27 | CCCCCCCN1CC[C@@H](CCCc2ccnc3ccc(OC)cc23)[C@@H](CNC)C1.O=C(O)C(=O)O [TCMDC-139875] | 0 (0: NO) | 0.73 µM | 5.89 µM
28 | CN(C)CCCNCc1ccc(-c2ccc(C(F)(F)F)cc2)cc1 [TCMDC-140011] | 0 (0: NO) | 1.68 µM | 4.90 µM
29 | COc1cccc(CCNC(C)Cc2ccc(OCCCCOc3ccccc3)cc2)c1 (stereo not drawn) [TCMDC-140020] | 0 (0: NO) | 1.51 µM | 1.46 µM
30 | Nc1ccc2[nH]cc(C3CCN(CC4CCN(C(=O)/C=C/c5ccc(Cl)c(Cl)c5)CC4)CC3)c2n1 [TCMDC-140061] | 0 (0: NO) | 1.77 µM | 5.89 µM
31 | Nc1ccc2[nH]cc(C3CCN(CCC4CCN(C(=O)/C=C/c5ccc(Cl)c(Cl)c5)CC4)CC3)c2n1 [TCMDC-140062] | 0 (0: NO) | 1.29 µM | 8.13 µM
32 | Nc1ccc2[nH]cc(C3CCN(CC4CCC(NC(=O)/C=C/c5ccc(Cl)c(Cl)c5)CC4)CC3)c2n1 (stereo not drawn) [TCMDC-140064] | 1 (1: YES) | 0.69 µM | 12.59 µM

— PMC6753678, “Fueling Open Innovation for Malaria Transmission-Blocking Drugs: Hundreds of Molecules Targeting Early Parasite Mosquito Stages” (Frontiers in Microbiology, 2019)
